Our source for the TGI values is PubChem BioAssay (NCI).

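Each compound was tested at five concentrations against cells in 96-well plates for 48 hours. TGI: concentration producing complete growth inhibition.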 Where only a bound is given, the exact number is not on record here.

Among the test systems are RPMI-8226 leukemia; RXF 393 renal; TK-10 renal; NCI-H23 lung; LOX IMVI melanoma; T-47D breast; SF-268 CNS; HT29 colon; M14 melanoma; MDA-MB-231 breast; A498 renal; OVCAR-3 ovarian; OVCAR-5 ovarian; ACHN renal; IGROV1 ovarian; SR leukemia; CCRF-CEM leukemia; SNB-75 CNS; SN12C renal.
What all share (assay): growth of human tumour cells (NCI), 48 h

On to `CC12CCC(C(=Nc3ccc([N+](=O)[O-])cc3)C1=O)C2(C)C` (stereo unspecified), for which the TGI with RPMI-8226 leukemia was 52.3 µM; in the test on RXF 393 renal it was 44.9 µM; in the test with TK-10 renal, 59 µM; with NCI-H23 lung, 99.5 µM; in the test with LOX IMVI melanoma, 31.3 µM; in the test with T-47D breast, 69.5 µM. The TGI was 47.3 µM with SF-268 CNS; more than 100 µM in the test with HT29 colon; more than 100 µM with M14 melanoma; 76.6 µM in the test on MDA-MB-231 breast; more than 100 µM in the test on A498 renal; 55.1 µM with OVCAR-3 ovarian. Further, the TGI was more than 100 µM in the test with OVCAR-5 ovarian, more than 100 µM with ACHN renal, 57.3 µM with IGROV1 ovarian and 59.3 µM with SR leukemia.
As to `CCCCCCCCCCCCCCCCCCCCCCC(=O)N[C@H]1CCc2cc(OC)c(OC)c(OC)c2-c2ccc(SC)c(=O)cc21`, the TGI with TK-10 renal was more than 100 µM; in the test with NCI-H23 lung, 62.2 µM; in the test with SF-268 CNS it was more than 100 µM; with HT29 colon, 99 µM; with M14 melanoma, 90.4 µM; in the test with A498 renal it was 40.7 µM. Further, the TGI was 60.4 µM in the test on OVCAR-3 ovarian; more than 100 µM with OVCAR-5 ovarian; more than 100 µM in the test with CCRF-CEM leukemia; more than 100 µM with ACHN renal; 58.2 µM with SNB-75 CNS; more than 100 µM in the test with IGROV1 ovarian. Besides, the results for the TGI in the test with SR leukemia and with SN12C renal were 81.9 µM and more than 100 µM, respectively.
Consider `O=c1[nH]nc(Nc2ccc(Cl)cc2)c2nnn(-c3ccc([N+](=O)[O-])cc3)c12`, for which the TGI was more than 100 µM in the test with RPMI-8226 leukemia; 46.7 µM with TK-10 renal; 24.9 µM in the test on NCI-H23 lung; 53.1 µM in the test with LOX IMVI melanoma; more than 100 µM with SF-268 CNS; more than 100 µM in the test with HT29 colon. Besides, the TGI is more than 100 µM in the test on M14 melanoma; more than 100 µM in the test with MDA-MB-231 breast; more than 100 µM in the test on OVCAR-5 ovarian; 61.7 µM in the test with CCRF-CEM leukemia; more than 100 µM in the test with ACHN renal; more than 100 µM with SNB-75 CNS. The TGI in the test on IGROV1 ovarian, in the test with SR leukemia and in the test on SN12C renal was more than 100 µM throughout.
For the compound `CCCCc1c2c([n+]([O-])c3c1CCCC3)CCCC2`, the TGI with RPMI-8226 leukemia, with TK-10 renal, in the test on NCI-H23 lung, in the test with LOX IMVI melanoma, in the test on SF-268 CNS and with HT29 colon was more than 100 µM throughout. The TGI in the test on OVCAR-3 ovarian was more than 100 µM; in the test on CCRF-CEM leukemia, more than 100 µM; in the test on ACHN renal, 43.1 µM; in the test with IGROV1 ovarian it was more than 100 µM; in the test with SR leukemia, more than 100 µM; in the test with SN12C renal, more than 100 µM.
On to `NC(Cc1c2ccccc2cc2ccccc12)C(=O)O` (stereo unspecified), for which the TGI in the test with RXF 393 renal, with TK-10 renal, with NCI-H23 lung, in the test on LOX IMVI melanoma, with T-47D breast and in the test with SF-268 CNS was more than 100 µM throughout. The TGI in the test on HT29 colon, in the test on M14 melanoma, in the test on MDA-MB-231 breast, in the test with OVCAR-3 ovarian, with OVCAR-5 ovarian and in the test on CCRF-CEM leukemia was more than 100 µM in each case. Also, the TGI is more than 100 µM in the test with ACHN renal; 94.9 µM in the test with SNB-75 CNS; more than 100 µM with IGROV1 ovarian; more than 100 µM with SR leukemia; more than 100 µM with SN12C renal.
As for `CSC(SC)=C1Sc2cccc(Cl)c2S1`, the TGI in the test on RPMI-8226 leukemia is more than 100 µM; in the test with RXF 393 renal, 88.1 µM; with TK-10 renal, more than 100 µM; in the test with NCI-H23 lung, more than 100 µM; in the test with LOX IMVI melanoma it was more than 100 µM; in the test with SF-268 CNS it was more than 100 µM. Also, the TGI in the test on HT29 colon, in the test with M14 melanoma, with A498 renal, in the test on OVCAR-5 ovarian, with CCRF-CEM leukemia and with ACHN renal was more than 100 µM each time. Moreover, the TGI in the test on SNB-75 CNS, in the test with IGROV1 ovarian and with SN12C renal was more than 100 µM each time.
Take `O=C(O)c1ccc2nc(-c3ccccn3)c(-c3ccccn3)nc2c1`: the TGI with RPMI-8226 leukemia, in the test on RXF 393 renal, in the test on TK-10 renal, in the test with NCI-H23 lung, in the test on LOX IMVI melanoma and with T-47D breast was more than 100 µM in each case. For the same compound, the TGI in the test with SF-268 CNS, in the test with HT29 colon, with M14 melanoma, with MDA-MB-231 breast, in the test with A498 renal and with CCRF-CEM leukemia was more than 100 µM throughout. In addition, the TGI in the test on ACHN renal, in the test on SNB-75 CNS, in the test on IGROV1 ovarian and with SR leukemia was more than 100 µM throughout.
On to `CCn1c(O)c(C(=O)Nc2cccs2)c(=O)n(CC)c1=S`, for which the TGI with RPMI-8226 leukemia was 55.1 µM; in the test on TK-10 renal it was 69.3 µM; in the test with NCI-H23 lung, 30.5 µM; in the test with LOX IMVI melanoma it was 33.3 µM; with SF-268 CNS, 44.4 µM; in the test on HT29 colon it was 31.9 µM. In addition, the TGI was 43.8 µM in the test with M14 melanoma; 36.8 µM with A498 renal; 32.2 µM in the test with OVCAR-3 ovarian; 61.5 µM in the test with OVCAR-5 ovarian; more than 100 µM in the test on CCRF-CEM leukemia; 63.2 µM in the test with ACHN renal. Besides, the TGI in the test on SNB-75 CNS is 33.4 µM; in the test on IGROV1 ovarian, 60.9 µM; in the test with SR leukemia, more than 100 µM; with SN12C renal it was 70.8 µM.
As to `CC1=C(C(N)=O)C(c2ccncc2)C(C#N)C(=O)N1` (stereo unspecified), the TGI with RPMI-8226 leukemia, in the test on RXF 393 renal, with TK-10 renal, in the test with NCI-H23 lung, in the test on LOX IMVI melanoma and with T-47D breast was more than 100 µM each time. Further, the TGI with SF-268 CNS, in the test on M14 melanoma, with MDA-MB-231 breast, in the test on A498 renal, in the test with CCRF-CEM leukemia and in the test with ACHN renal was more than 100 µM each time. The TGI in the test on SNB-75 CNS, in the test on IGROV1 ovarian and in the test with SR leukemia was more than 100 µM each time.
